Legend:
Test in all cases: relative viability (nuclei count vs DMSO), 5 days (fraction); higher = more cells survive
Cabozantinib = compound: COc1cc2nccc(Oc3ccc(NC(=O)C4(C(=O)Nc5ccc(F)cc5)CC4)cc3)c2cc1OC [Cabozantinib]
Procedure, shortened: (§1)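 Lung cancer cell lines in 1536-well plates were kept overnight at 37 °C, then pinned with five library-drug doses (not always all listed) spaced by √10 on vehicle-anchored plates. After 5 days without medium change, cells were fixed, permeabilised and Hoechst-stained in one step, imaged at 4×, and nuclei were counted with MetaXpress. Viability is treated-well nuclei divided by vehicle-well nuclei, taken as the median over plates. Plates passed only with control CV below 25% and at least one doubling.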

Kobe2602 = compound: C1=CC(=CC=C1NC(=S)NNC2=C(C=C(C=C2[N+](=O)[O-])C(F)(F)F)[N+](=O)[O-])F [Kobe2602]
Procedure, shortened: as §1

Zosuquidar = compound: O[C@@H](COc1cccc2ncccc12)CN1CCN([C@@H]2c3ccccc3[C@@H]3[C@H](c4ccccc42)C3(F)F)CC1 [Zosuquidar]
Procedure, shortened: as §1

| Cell Line | relative viability (Cabozantinib; 0.02 µM) | relative viability (Cabozantinib; 0.06325 µM) | relative viability (Cabozantinib; 0.2 µM) | relative viability (Cabozantinib; 0.6325 µM) | relative viability (Cabozantinib; 2 µM) | relative viability (Kobe2602; 0.2 µM) | relative viability (Kobe2602; 0.6325 µM) | relative viability (Kobe2602; 2 µM) | relative viability (Kobe2602; 6.325 µM) | relative viability (Kobe2602; 20 µM) | relative viability (Zosuquidar; 0.01 µM) | relative viability (Zosuquidar; 0.03162 µM) | relative viability (Zosuquidar; 0.1 µM) | relative viability (Zosuquidar; 0.3162 µM) | relative viability (Zosuquidar; 1 µM) |
| --- | --- | --- | --- | --- | --- | --- | --- | --- | --- | --- | --- | --- | --- | --- | --- |
| NCI-H2087 | 1.09 | 1.16 | 1.03 | 0.922 | 1.02 | 1.02 | 1.08 | 0.995 | 1.08 | 1.13 | 1.06 | 0.971 | 0.907 | 1.19 | 1.07 |
| NCI-H2126 | 0.747 | 1.05 | 0.991 | 0.99 | 1.11 | 1.01 | 1.02 | 0.975 | 0.971 | 0.961 | 0.96 | 0.996 | 0.741 | 1.03 | 1.03 |
| NCI-H2170 | 0.991 | 1 | 0.864 | 1.02 | 1.04 | 1.03 | 0.958 | 0.974 | 0.992 | 0.871 | 0.989 | 1 | 0.932 | 0.971 | 0.954 |
| NCI-H2228 | 1.05 | 1.11 | 0.938 | 0.879 | 0.871 | 1.02 | 1.11 | 1.01 | 0.944 | 1.11 | 0.901 | 0.979 | 1.02 | 0.952 | 1.03 |
| NCI-H2342 | 0.909 | 1.02 | 0.866 | 0.952 | 0.888 | 1.03 | 1.06 | 0.92 | 0.946 | 1.12 | 0.876 | 0.964 | 0.758 | 1.11 | 1 |
| NCI-H2347 | 1.15 | 1.14 | 1.06 | 0.886 | 0.961 | 1.04 | 1.02 | 1.01 | 1.06 | 1.07 | 1 | 1.05 | 0.854 | 1.11 | 0.991 |
| NCI-H2405 | 0.807 | 1.11 | 1.09 | 1.01 | 1.08 | 1.04 | 1.09 | 0.964 | 1.09 | 1.14 | 1.1 | 0.942 | 0.981 | 1.03 | 0.93 |
| NCI-H3122 | 0.995 | 1.05 | 1.03 | 0.983 | 0.998 | 1.01 | 0.971 | 1.01 | 0.985 | 1.04 | 0.984 | 0.952 | 0.919 | 1.07 | 0.987 |
| PC-3 [JPC-3] | 1.03 | 1.21 | – | 1.03 | 1.09 | 1.07 | 1.09 | 1.01 | 1.01 | 0.954 | 1.06 | 0.992 | 0.883 | 0.972 | 1.01 |
| PC-14 | 1.01 | 1.14 | – | 0.996 | 0.99 | 0.993 | 1.05 | 0.989 | 1.04 | 0.952 | 0.988 | 0.981 | 0.953 | 1.11 | 0.954 |
| RERF-LC-KJ | 1.02 | 1.1 | 0.935 | 0.996 | 0.994 | 0.981 | 0.943 | 0.959 | 0.9 | 0.906 | 0.943 | 1.03 | 1.03 | 1.04 | 0.971 |
| SK-LU-1 | 0.97 | 1.24 | 1.08 | 0.926 | 0.942 | 1 | 1.13 | 0.937 | 1.04 | 1.1 | 1.1 | 1.02 | 0.962 | 1.11 | 1.07 |
| SK-MES-1 | 0.981 | 1.14 | 0.986 | 1.03 | 0.953 | 0.96 | 1.05 | 0.964 | 0.97 | 0.855 | 0.998 | 0.993 | 0.912 | 1.02 | 1.04 |
| SW 900 | 0.807 | 1.14 | 0.815 | 0.959 | 0.903 | 0.987 | 0.861 | 0.83 | 0.906 | 0.975 | 0.904 | 0.889 | 0.705 | 1.22 | 0.759 |
| SW 1573 | 0.984 | 1.05 | 1.01 | 0.979 | 0.819 | 0.933 | 1.02 | 0.915 | 0.883 | 0.907 | 0.925 | 1 | 1.03 | 1.07 | 0.934 |

Reference: the supplement of paper PMC10307832
